# Results taken from ChEMBL document CHEMBL4406848, “Novel water soluble BODIPY compounds: Synthesis, photochemical, DNA interaction, topoisomerases inhibition and photodynamic activity properties” (Eur J Med Chem, 2019).
# What was measured:
# [1] = Induction of singlet oxygen generation in TBS solution assessed as singlet oxygen quantum yield by measuring reduction in ADMA irradiated with 650 nanometer laser light; type: functional
# [2] = Induction of singlet oxygen generation in DMSO solution assessed as singlet oxygen quantum yield by measuring reduction in DPBF irradiated with 650 nanometer laser light; type: functional
structure (smiles),measurement,setting,value
CN(C)c1ccc2nc3ccc(=[N+](C)C)cc-3sc2c1,Activity,[1],0.52
same,Activity,[2],0.57
